Values of other authors, collected in patent publication US4399125A, “Novel antagonists of the antidiuretic action of arginine vasopressin” (priority 1981, dated 1983).

Legend:
[1] = tested on: oxytocic response to oxytocin; settings: literature; cited from earlier work
[2] = tested on: vasopressor response to AVP; settings: prior art statement; cited from earlier work
[3] = tested on: antidiuretic activity (urine flow); settings: prior art statement; cited from earlier work
[4] = tested on: vasoconstrictive action; settings: compared with natural vasopressins; cited from earlier work
[5] = tested on: antidiuretic response to ADH (arginine vasopressin); settings: earlier work of Manning et al. (in press); cited from earlier work

Substance	oxytocic activity (agonist / antagonist, in words) [1]	vasopressor antagonism (in words) [2]	antidiuretic potency / activity (in words) [3]	also measured
[1-deaminopenicillamine] oxytocin [dPOT]	potent antagonists of the oxytocic response to oxytocin	–	–	–
1-deamino-oxytocin [dOT]	highly potent oxytocic agonist	–	–	–
[1-(β-Mercapto-β,β-cyclopentamethylenepropionic acid), 2-(O-methyl)tyrosine]-arginine vasopressin	–	potent vasopressor antagonists	very low antidiuretic potency	–
[1-deaminopenicillamine, 4-valine, 8-D-arginine]vasopressin	–	potent antagonists of the vasopressor response to AVP	weak antidiuretic activity	–
2-phenylalanine-8-ornithine vasopressin	–	–	low antidiuretic activity	vasoconstrictive action [4]: equal to that of natural vasopressins
[1-(β-mercapto-β,β-cyclopentamethylenepropionic acid), 2-D-tyrosine, 4-valine, 8-D-arginine] vasopressin [d(CH2)5 D-Tyr-VDAVP]	–	–	–	anti-antidiuretic activity (in words) [5]: anti-antidiuretics
[1-(β-mercapto-β,β-cyclopentamethylenepropionic acid)] oxytocin [d(CH2)5 OT]	potent antagonists of the oxytocic response to oxytocin	–	–	–
[1-(β-mercapto-β,β-cyclopentamethylenepropionic acid), 4-valine, 8-D-arginine] vasopressin	–	potent antagonists of the vasopressor response to AVP	weak antidiuretic activity	–
